The numbers were not newly measured in US5654277A, “Peptides having thrombospondin-like activity and their therapeutic use” (W. R. Grace & Co.-Conn., priority 1995, dated 1997), which cites them from elsewhere.

The data set relates to B16-F10 murine melanoma cells. The settings on record: C57BL/6 mice.

Turning to GRGDS, the “inhibition of lung colony formation / metastasis” value is “dramatically inhibited the formation of lung colonies”.

Consider YIGSR, for which the “inhibition of lung colony formation / metastasis” value is “dramatically inhibited B16-F10 melanoma cell metastasis”.
